Experimental data from paper PMC8445441, “Elucidating the mechanism by which synthetic helper peptides sensitize Pseudomonas aeruginosa to multiple antibiotics” (PLoS Pathogens, 2021).
Read-outs that look alike come from different tables or passages of the source.

Legend:
[1] = tested on: P. aeruginosa AUMC-Pa-3; assay: microbe, parasite or virus in culture; settings: strain AUMC-Pa-3
Procedure, shortened: (§1)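 Values are lowest concentrations showing no visible growth after 18 h at 37 °C. Drugs were serially halved in MHB and combined with equal volumes of a roughly 1 × 10^6 CFU/mL suspension, following CLSI guidance, in triplicate.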

[2] = tested on: P. aeruginosa AUMC-Pa-4; assay: microbe, parasite or virus in culture; settings: strain AUMC-Pa-4
Procedure, shortened: as §1

[3] = tested on: P. aeruginosa AUMC-Pa-6; assay: microbe, parasite or virus in culture; settings: strain AUMC-Pa-6
Procedure, shortened: as §1

[4] = tested on: P. aeruginosa PAO1; assay: microbe, parasite or virus in culture; settings: S3 Table, PAO1
Procedure, shortened: as §1

[5] = tested on: P. aeruginosa AUMC-Pa-5; assay: microbe, parasite or virus in culture; settings: strain AUMC-Pa-5
Procedure, shortened: as §1

[6] = tested on: P. aeruginosa NR-31041; assay: microbe, parasite or virus in culture; design: MICa: MIC of the antibiotic / MICac: MIC of the antibiotic in the combination: unit not given beside the values; settings: strain NR-31041
Experimental: (§2) The MIC tests were performed in triplicate using broth microdilution in accordance with Clinical and Laboratory Standards Institute (CLSI) recommendations (http://iacld.ir/DL/public/CLSI-2018-M100-S28.pdf). Briefly, drugs were two-fold diluted in MHB and mixed with an equal volume of bacterial suspensions containing approximately 1 × 10^6 CFU/mL in 96-well microliter plate. After 18 h incubation at 37 °C, the MIC values were defined as the lowest concentrations of antibiotics with no visible growth of bacteria. […] Otherwise, 1/4 MIC of the peptide was used in the combination. […] If needed, membrane compounds PG, PE, PC, CL or LPS, or membrane stabilizers MgCl2 or CaCl2, or efflux pumps inhibitor PAβN were added to the broth medium to clarify the effect of other substances on the synergy between peptide and antibiotics. All the tests were performed in triplicate.
(§3) The fractional inhibitory concentration (FIC) indices were calculated using the previously described formula FICI = FICa + FICb = MICac/MICa + MICbc/MICb. The FICI was interpreted according to EUCAST [65] as follows: synergistic, FICI≤0.5; additive, 0.5<FICI≤1; indifferent, 1<FICI<2; antagonistic, FICI ≥2. For the FICI calculations, twice the highest concentration tested was used in the cases where the MIC was not reached.

[7] = tested on: P. aeruginosa PAK; assay: microbe, parasite or virus in culture; design: MICa: MIC of the antibiotic / MICac: MIC of the antibiotic in the combination: unit not given beside the values; settings: strain PAK
Experimental: as §2, §3

[8] = tested on: P. aeruginosa ATCC27853; assay: microbe, parasite or virus in culture; design: MICa: MIC of the antibiotic / MICac: MIC of the antibiotic in the combination: unit not given beside the values; settings: strain ATCC27853
Experimental: as §2, §3

[9] = tested on: P. aeruginosa PA14; assay: microbe, parasite or virus in culture; design: MICa: MIC of the antibiotic / MICac: MIC of the antibiotic in the combination: unit not given beside the values; settings: strain PA14
Experimental: as §2, §3

[10] = tested on: P. aeruginosa NR-31040; assay: microbe, parasite or virus in culture; design: MICa: MIC of the antibiotic / MICac: MIC of the antibiotic in the combination: unit not given beside the values; settings: strain NR-31040
Experimental: as §2, §3

[11] = tested on: clinical P. aeruginosa isolates; assay: microbe, parasite or virus in culture; settings: Pseudomonas aeruginosa, 18 h, antibiotic alone
Procedure, shortened: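 MIC is the lowest drug concentration showing no visible growth after 18 h at 37 °C. Two-fold dilutions in MHB were combined with an equal volume of bacterial suspension (about 1 × 10^6 CFU/mL), following CLSI broth microdilution, in triplicate.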

[12] = tested on: P. aeruginosa AUMC-Pa-2; settings: strain AUMC-Pa-2; antibiotic + D-11 (MICb/MICbc 64/4)
Experimental: as §2, §3

[13] = tested on: P. aeruginosa AUMC-Pa-1; settings: strain AUMC-Pa-1; antibiotic + D-11 (MICb/MICbc 128/4)
Experimental: as §2, §3

[14] = tested on: P. aeruginosa HM-214; settings: strain HM-214; antibiotic + D-11 (MICb/MICbc 128/4)
Experimental: as §2, §3

[15] = antibiotic + D-11 (MICb/MICbc 128/4)
[16] = antibiotic alone, unit not given
[17] = with D-11 at MICbc 4, unit not given
[18] = antibiotic + D-11 (MICb/MICbc 64/4)

MICa: MIC of the antibiotic [1, 16]: 128
MICac: MIC of the antibiotic in the combination [1, 17]: 32
MICa: MIC of the antibiotic [2, 16]: 128
MICac: MIC of the antibiotic in the combination [2, 17]: 64
MICa: MIC of the antibiotic [3, 16]: 128/128
MICac: MIC of the antibiotic in the combination [3, 17]: 128/128
MICac: the MIC for the antibiotic in the combination ([4]; with 2 μM D-11): 16 µM
MICac: the MIC for the antibiotic in the combination ([4]; with 4 μM D-11): 4 µM
MICa: the MIC of antibiotics ([4]; antibiotic alone): 64 µM
MICa: MIC of the antibiotic [5, 16]: 128/128
MICac: MIC of the antibiotic in the combination [5, 17]: 128/128
MICa: MIC of the antibiotic [6, 16]: 128/128
MICac: MIC of the antibiotic in the combination [6, 17]: 128/128
MICa: MIC of the antibiotic [7, 16]: 128
MICac: MIC of the antibiotic in the combination [7, 17]: 64
MICa: MIC of the antibiotic [8, 16]: 128
MICac: MIC of the antibiotic in the combination [8, 17]: 32
MICa: MIC of the antibiotic [9, 16]: 128/128
MICac: MIC of the antibiotic in the combination [9, 17]: 128/128
MICa: MIC of the antibiotic [10, 16]: 64/64
MICac: MIC of the antibiotic in the combination [10, 17]: 64/64
MIC ([11]; read-out: Antibiotic sensibility (MIC) of clinical P. aeruginosa isolate AUMC-Pa-1, strain AUMC-Pa-1): > 128 µM
MIC ([11]; read-out: Antibiotic sensibility (MIC) of clinical P. aeruginosa isolate AUMC-Pa-2, strain AUMC-Pa-2): 64 µM
MIC ([11]; read-out: Antibiotic sensibility (MIC) of clinical P. aeruginosa isolate AUMC-Pa-3, strain AUMC-Pa-3): 128 µM
MIC ([11]; read-out: Antibiotic sensibility (MIC) of clinical P. aeruginosa isolate AUMC-Pa-4, strain AUMC-Pa-4): 128 µM
MIC ([11]; read-out: Antibiotic sensibility (MIC) of clinical P. aeruginosa isolate AUMC-Pa-5, strain AUMC-Pa-5): 128 µM
MIC ([11]; read-out: Antibiotic sensibility (MIC) of clinical P. aeruginosa isolate AUMC-Pa-6, strain AUMC-Pa-6): 128 µM
MIC ([11]; read-out: Antibiotic sensibility (MIC) of clinical P. aeruginosa isolate HM-214, strain HM-214): 128 µM
MIC ([11]; read-out: Antibiotic sensibility (MIC) of clinical P. aeruginosa isolate NR-31040, strain NR-31040): 64 µM
MIC ([11]; read-out: Antibiotic sensibility (MIC) of clinical P. aeruginosa isolate NR-31041, strain NR-31041): 128 µM
SMILES: CC1(C)S[C@@H]2[C@H](NC(=O)C(C(=O)O)c3ccccc3)C(=O)N2[C@H]1C(=O)O (some centres unmarked) [Carbenicillin]
FICI [1, 15]: 0.281
FICI [2, 15]: 0.531
FICI [3, 18]: 1.063
FICI ([4]; antibiotic + 2 μM D-11): 0.313
FICI ([4]; antibiotic + 4 μM D-11): 0.188
FICI [5, 18]: 1.063
FICI [6, 18]: 1.063
FICI [7, 18]: 0.563
FICI ([8]; antibiotic + D-11 (MICb/MICbc 32/4)): 0.375
FICI [9, 15]: 1.031
FICI [10, 15]: 1.031
FICI [12]: 1.063
FICI [13]: 0.531
FICI [14]: 1.031
